# Assay results published in patent publication US20250171404A1, “PCNA INHIBITORS AND USES THEREOF” (CITY OF HOPE, priority 2022, published 2025).
# Columns and labels:
# [1] = system: more than 70 cancer cell lines; assay: Growth inhibition across cancer cell lines (GI50); type: cell-based; conditions: read-out: median concentration to achieve 50% growth inhibition (GI50); across more than 70 cancer cell lines
# γH2A.X = γH2A.X Western blot (DNA damage marker); type: cell-based, human
# RKO = assay: Cell growth IC50, screening of AOH1160 analogs; type: cell-based; conditions: Homo sapiens, read-out: IC50 values
# HCT-116 = assay: Cell growth IC50, screening of AOH1160 analogs; type: cell-based; conditions: Homo sapiens, HCT-116, read-out: IC50 values
# OVCAR8 = assay: Cell growth IC50, screening of AOH1160 analogs; type: cell-based; conditions: Homo sapiens, OVCAR-8, read-out: IC50 values
# MDA-MB-468 = assay: Cell growth IC50, screening of AOH1160 analogs; type: cell-based; conditions: Homo sapiens, MDA-MB-468, read-out: IC50 values
# HTC-116 = assay: Cell growth IC50, screening of AOH1160 analogs; type: cell-based; conditions: read-out: IC50 values
# [2] = system: SK-N-AS cells homozygous of the Y418A mutant RPB1 alleles; assay: Growth of RPB1 Y418A (APIM) mutant cell lines; type: cell-based, human; conditions: 72 hrs; vs parent SK-N-AS
# [3] = system: SK-N-DZ neuroblastoma cells; assay: Clonogenic assay with cisplatin; type: cell-based, human; conditions: 500 nM AOH1996, 18 hours
# Experimental: (§1) FIGS. 3A-3D. Therapeutic properties of AOH1996. FIG. 3A: Normal cells (7SM0032) or cancer cells (SH-SY5Y and SK-N-BE(2)c) cells were fixed, stained with PI, and analyzed by flow cytometry following treatment with 500 nM AOH1996 for the indicated time. FIG. 3B: SK-N-DZ neuroblastoma cells and nonmalignant 7SM0032 stem cells were incubated with 500 nM AOH1996 for 24 h. Then, after being fixed on slides, cell apoptosis were analyzed by a TUNEL assay. Left: TMR fluorophore attached to the free ends of DNA indicates cells undergoing apoptosis. DAPI stained nuclei also shown. Right: Average abundance ±S.D. of apoptotic 7SM0032 (black histogram) and SK-N-DZ (grey histogram) cells relative to the total number of cells are shown in 5 randomly selected fields. FIG. 3C: Human SK-N-DZ neuroblastoma cells were treated with or without the indicated concentrations of cisplatin in the absence or presence of 500 nM of AOH1996 for 18 hours. […] The relative number of colonies determined in triplicates for each treatment condition were averaged and graphed ±SDs (*, P<0.01). […] Cell growth was measured as the percentage of cell confluence by imaging every 6 h for a total of 48 h.
# Clonogenic Assay. […] The colonies were stained with 0.5% crystal violet and counted. Synergy between AOH1996 and cisplatin was evaluated using combination indices (Cl) based on the Bliss independence model [C]=(EA+EB−EA*EB)/EAB] […]
# SH-SY5Y and SK-N-BE(2)c = assay: Cell cycle analysis (PI, flow cytometry), cancer cells; type: cell-based, human; conditions: 500 nM
# Experimental: as §1
# Cell Cycle Analysis. […] PI fluorescence intensity of the cells was measured by flow cytometry and the data was analyzed using the FlowJo program.
compound,measurement,setting,value
"COc1cccc(Oc2ccccc2NC(=O)CNC(=O)c2cccc3ccccc23)c1 [AOH1996, N-(2-((2-(3-methoxyphenoxy)phenyl)amino)-2-oxoethyl)-1-naphthamide]",GI50,[1],~300 nM
same,"γH2A.X levels, cancer vs non-malignant cells","γH2A.X; 500 nM, SK-N-BE(2)c","caused accumulation of DNA damages as measured by γH2A.X levels in the SK-N-BE(2)c cancer cells, but not in non-malignant cells"
same,"γH2A.X levels, wildtype RPB1 vs Y418A mutant cells","γH2A.X; SK-N-AS, overnight",caused substantially more DNA damages as measured by γH2A.X levels in cells containing wildtype RPB1 allele than in cells homozygous of the Y418A mutant allele
same,IC50,RKO,255 nM
same,IC50,HCT-116,786 nM
same,IC50,OVCAR8,549 nM
same,IC50,MDA-MB-468,740 nM
same,IC50,HTC-116,250 nM
same,sensitivity of RPB1 Y418A mutant cells to growth inhibition,[2],significantly less sensitive to growth inhibition by AOH1996 than the parent cells
same,sensitivity to cisplatin (colony formation),[3],"increased the sensitivity of cancer cells to genotoxic agents, including cisplatin"
same,change in cell-cycle profile,SH-SY5Y and SK-N-BE(2)c,G2/M and/or S phase arrest in cancer cells
